Measured values reported in patent publication US8686130B2, “Artificial fluorescent bases” (Riken, priority 2009, dated 2014).
Values joined by “and” are separate entries in the source; they are usually repeats but may differ in a detail not shown here. Equal values may be shown once. Read-outs that look alike come from different tables or passages of the source.

Columns and labels:
T7 RNA polymerase = T7 RNA polymerase (Escherichia phage T7, UniProt P00573); details: 0.05 to 0.1 mM substrate, 1 mM natural NTPs, 37° C., 3 hr
Procedure: Templates for transcription by the T7 polymerase were prepared by heating chemically synthesized two DNA strands (10 μM coding strand (SEQ ID NO: 4) of 35-mer and non-coding strand (SEQ ID NO: 5) of 21-mer) at 95° C. in a 10 mM Tris-HCl buffer (pH 7.6) containing 10 mM NaCl and then slowly cooled to 4° C. for annealing. The transcription by the T7 polymerase was performed by using 2 μM of the template and 50 units of a T7 RNA polymerase (Takara Shuzo Co., Ltd., Kyoto) in a 40 mM Tris-HCl buffer (pH 8.0, 20 μL) containing 24 mM MgCl2, 2 mM spermidine, 5 mM DTT, and 0.01% Triton X-100 in the presence of 1 mM natural NTPs, 0.05 to 0.1 mM ssTP or DssTP (ribonucleoside 5′-triphosphate of ss or Dss). After the reaction at 37° C. for 3 hr, the reaction was terminated by addition of a dye solution (20 μL) containing 10 M urea and 0.05% BPB. […] The transcription product was protected by placing the gel on a TLC containing a fluorescent indicator, irradiating the gel with UV of 254 nm, and photographing the image with a Polaroid camera utilizing the phenomenon that nucleic acid absorbs the UV and thereby the band of the transcription product is detected as an image. The transcript including the unnatural fluorescent base ss or Dss was detected with a bio-imaging analyzer, LAS 4000 (Fujifilm Corporation) utilizing epi-UV LED.

Klenow fragment (exo+) = Klenow fragment (exo+) (Escherichia coli, UniProt P00582); details: 0.5 μM dDssTP with 10 μM natural base substrate, 37° C.
Procedure: Template strand DNA (SEQ ID NO: 1,35-mer, 400 nM) dissolved in 2× reaction buffer (20 mM tris-HCl, pH 7.5, 14 mM MgCl2, 0.2 mM DTT) and a primer labeled with ^32P at the 5′-end (SEQ ID NO: 2,23-mer, 400 nM) were heated at 95° C. for 3 min and then slowly cooled for annealing to form a double strand. To each 5 μL of the resulting double-stranded DNA solution, 2.5 μL of a 4×dNTP solution mixture (40 μM dTTP, 40 μM dCTP, 0 to 40 μM dDssTP) and 2.5 μL (1 unit) of Klenow fragment (Takara Shuzo Co., Ltd.) diluted with water were added to start the enzyme reaction at 37° C. After incubation at 37° C., the reaction was terminated by addition of a TBE solution containing 10 μL of 10 M urea and heating at 75° C. for 3 min. A part of the reaction solution was subjected to electrophoresis with 15% polyacrylamide-7 M urea gel and analyzed with a bio-imaging analyzer (FLA7000, Fujifilm Corporation).

[1] = Fluorescence characteristics of base analog nucleosides; format: physicochemical; details: for Absorption maximum / Excitation wavelength / Fluorescence intensity (ε × φ) / Fluorescence wavelength / Molar absoption coefficient ε / Stokes shift: deoxyribonucleoside derivative; for Quantum yield (φ): quinine sulfate as a standard; for Fluorescence emitted by excitation at a wavelength of 350 nm or more: excitation 350 nm or more
Procedure: Reagents and solvents were purchased from typical suppliers and were used without further purification. ^1H-NMR (300 MHz, 270 MHz) and ^31P-NMR (121 MHz) spectra were recorded on a BRUKER AV300 or JEOL nuclear magnetic resonance spectrometer. Synthesized nucleoside derivatives and nucleoside 5′-triphosphate were purified with a Gilson HPLC system using a fractionation column (Waters Microbond Sphere, C18, 19 mm×150 mm, flow rate: 10 mL/min) and a fractionation column (PEGASIL C8, Senshu Scientific Co., Ltd., 10 mm×150 mm, flow rate: 6 mL/min), respectively. Electrospray-ionization mass spectra (ESI-MS) were recorded on a Waters ZMD 4000 mass system equipped with a Waters 2690 LC system. Fluorescence spectra were measured with a JASCO FP6500 fluorescence spectrometer, and fluorescence quantum yields were determined using quinine sulfate as a standard.
Fluorescence characteristics of nucleosides including an unnatural base, ss, sss, Dss, Dsss, Dsas, Dsav, or Dvas, were evaluated. For comparison, fluorescence characteristics of nucleosides including known unnatural bases, 2-aminopurine, s (2-amino-6-(2-thienyl)purin-9-yl group), v (2-amino-6-(2-thiazolyl)purin-9-yl group), and Ds (7-(2-thienyl)imidazo[4,5-b]pyridin-3-yl group) were also evaluated.

[2] = cited from earlier work
[3] = system: mRNA of firefly luciferase; assay: Suppression of firefly luciferase reporter gene expression by shRNA in HeLa cells (dual luciferase assay); format: cell-based; details: different shRNA concentrations, read-out: IC50 for suppressing expression of firefly luciferase gene
Procedure: In this Example, various shRNAs prepared by T7 transcription and gel purification were introduced into HeLa cells by lipofection together with a plasmid encoding a target reporter gene (firefly luciferase) and a control plasmid endocing a Renilla luciferase gene. Suppression of the target gene expression was investigated based on the luminescence of luciferase. […]
HeLa cells were seeded at 1.5×10^4 cells (100 μL of culture medium)/well in a 96-well plate and were cultured in an MEM medium containing 10% fetal bovine serum but not containing antibiotics for 24 hr. […] After culturing for 22 hr, the intensity of luminescence emitted from each of the two types of luciferase proteins was determined.
The effect of suppressing expression of the firefly luciferase protein, which is the target of shRNA, was analyzed by the intensities of luminescence emitted from the firefly luciferase and Renilla luciferase using dual luciferase reporter assay reagent (Promega Corporation). […] The resulting solution was mixed with 100 μL of LAR II reagent, and the luminescence of the firefly luciferase was detected (exposure time: 120 sec) with LAS 4000 (Fujifilm Corporation), then, 100 μL of Stop & Glo reagent was added thereto, and the luminescence of the Renilla luciferase was detected (exposure time: 200 sec). […]

[4] = from Ward et al., J. Biol. Chem. 1969

Sequence of T7 RNA polymerase (P00573 whole entry, the tested form may be a part): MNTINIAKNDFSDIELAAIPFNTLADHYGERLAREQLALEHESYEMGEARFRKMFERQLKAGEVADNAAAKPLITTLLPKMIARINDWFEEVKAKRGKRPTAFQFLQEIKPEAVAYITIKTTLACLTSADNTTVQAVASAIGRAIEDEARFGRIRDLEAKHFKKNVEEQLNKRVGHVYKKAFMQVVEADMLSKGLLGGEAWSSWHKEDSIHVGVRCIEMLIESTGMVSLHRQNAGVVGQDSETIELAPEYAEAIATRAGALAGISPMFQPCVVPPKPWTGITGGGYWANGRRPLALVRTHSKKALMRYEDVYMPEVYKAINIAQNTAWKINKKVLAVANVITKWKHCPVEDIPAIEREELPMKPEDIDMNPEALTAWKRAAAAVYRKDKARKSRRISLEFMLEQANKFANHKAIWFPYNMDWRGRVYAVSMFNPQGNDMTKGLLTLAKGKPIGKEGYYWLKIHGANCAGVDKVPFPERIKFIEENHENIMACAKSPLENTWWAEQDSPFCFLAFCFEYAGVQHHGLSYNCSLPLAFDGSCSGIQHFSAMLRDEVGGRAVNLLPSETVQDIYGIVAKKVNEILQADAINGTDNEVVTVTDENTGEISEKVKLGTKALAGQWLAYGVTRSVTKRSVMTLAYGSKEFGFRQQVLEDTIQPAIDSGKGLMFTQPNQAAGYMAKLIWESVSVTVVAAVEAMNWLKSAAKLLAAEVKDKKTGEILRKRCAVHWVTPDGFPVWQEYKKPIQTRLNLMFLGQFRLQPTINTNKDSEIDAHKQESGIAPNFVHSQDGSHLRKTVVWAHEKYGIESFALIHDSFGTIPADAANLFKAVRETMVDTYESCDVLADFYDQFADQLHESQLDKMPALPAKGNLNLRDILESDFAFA
Sequence of Klenow fragment (exo+) (P00582 324-928): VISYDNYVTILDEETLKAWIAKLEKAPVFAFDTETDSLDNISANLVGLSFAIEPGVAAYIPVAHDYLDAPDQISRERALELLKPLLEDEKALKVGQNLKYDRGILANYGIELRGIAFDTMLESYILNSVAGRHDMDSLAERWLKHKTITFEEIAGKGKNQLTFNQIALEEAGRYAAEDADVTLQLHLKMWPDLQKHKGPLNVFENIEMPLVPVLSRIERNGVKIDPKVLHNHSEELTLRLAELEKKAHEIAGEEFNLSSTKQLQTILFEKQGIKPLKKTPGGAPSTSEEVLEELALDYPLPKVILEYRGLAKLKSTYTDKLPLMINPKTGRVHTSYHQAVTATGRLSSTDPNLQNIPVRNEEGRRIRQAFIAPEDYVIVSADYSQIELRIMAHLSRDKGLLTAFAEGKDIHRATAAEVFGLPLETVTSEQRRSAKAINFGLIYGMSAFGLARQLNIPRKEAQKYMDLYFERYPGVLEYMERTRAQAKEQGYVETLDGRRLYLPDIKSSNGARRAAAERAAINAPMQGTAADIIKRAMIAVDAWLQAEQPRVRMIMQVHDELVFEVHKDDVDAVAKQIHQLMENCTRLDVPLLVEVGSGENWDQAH

## O=P(O)(O)OP(=O)(O)OP(=O)(O)OC[C@H]1O[C@@H](n2cnc3c(-c4ccc(-c5cccs5)s4)ccnc32)[C@H](O)[C@@H]1O [DssTP, 7-(2,2′-bithien-5-yl)-3-(β-D-ribofuranosyl)imidazo[4,5-b]pyridine 5′-triphosphate]
T7 RNA polymerase
  Incorporation into RNA opposite Pa in template DNA: selectively incorporated into RNA depending on Pa

## O=P(O)(O)OP(=O)(O)OP(=O)(O)OC[C@H]1O[C@@H](n2cnc3c(-c4ccc(-c5cccs5)s4)ccnc32)C[C@@H]1O [dDssTP, 7-(2,2′-bithien-5-yl)-3-(2-deoxy-β-D-ribofuranosyl)imidazo[4,5-b]pyridine 5′-triphosphate]
Klenow fragment (exo+)
  Incorporation into DNA opposite Pa in template DNA: selectively incorporated into a complementary DNA strand

## Nc1nc(-c2ccc(-c3cccs3)s2)c2ncn([C@@H]3O[C@H](COP(=O)(O)OP(=O)(O)OP(=O)(O)O)[C@@H](O)[C@H]3O)c2n1 [ssTP]
T7 RNA polymerase
  Incorporation into RNA opposite Pa in template DNA: selectively incorporated into RNA depending on Pa

## OC[C@H]1O[C@@H](n2ccc3c(-c4ccc(-c5cccs5)s4)ccnc32)C[C@@H]1O [dDsas, 1-[2-deoxy-β-D-ribofuranosyl]-4-(2,2′-bithien-5-yl)-pyrrolo[2,3-b]pyridine]
[1]
  Absorption maximum: 365 nm
  Excitation wavelength: 367 nm
  Fluorescence intensity (ε × φ): 2795
  Fluorescence wavelength: 451 nm
  Molar absoption coefficient ε: 21500 M⁻¹ cm⁻¹
  Stokes shift: 84 nm
  Quantum yield (φ): 0.13

## OC[C@H]1O[C@@H](n2cnc3c(-c4ccc(-c5ccc(-c6cccs6)s5)s4)ccnc32)C[C@@H]1O [dDsss, 7-(2,2′,5′,2″-terthien-5-yl)-3-(2-deoxy-β-D-ribofuranosyl)imidazo[4,5-b]pyridine]
[1]
  Absorption maximum: 403 nm
  Excitation wavelength: 407 nm
  Fluorescence intensity (ε × φ): 3132
  Fluorescence wavelength: 489 nm
  Molar absoption coefficient ε: 34800 M⁻¹ cm⁻¹
  Stokes shift: 82 nm
  Quantum yield (φ): 0.09

## Nc1nc(-c2nccs2)c2ncn([C@H]3C[C@H](O)[C@@H](CO)O3)c2n1 [dv, reference compound]
[1]
  Absorption maximum: 363 nm
  Excitation wavelength: 363 nm and 357 nm
  Fluorescence intensity (ε × φ): 3444
  Fluorescence wavelength: 461 nm
  Molar absoption coefficient ε: 8400 M⁻¹ cm⁻¹
  Stokes shift: 104 nm
  Quantum yield (φ): 0.41
other
  Stability of nucleoside derivative under basic conditions: low stability

## OC[C@H]1O[C@@H](n2ccc3c(-c4ncc(-c5cccs5)s4)ccnc32)C[C@@H]1O [dDvas, 1-[2-deoxy-β-D-ribofuranosyl]-4-[5-(2-thienyl)thiazol-2-yl]pyrrolo[2,3-b]pyridine]
[1]
  Absorption maximum: 377 nm
  Excitation wavelength: 378 nm
  Fluorescence intensity (ε × φ): 3780
  Fluorescence wavelength: 449 nm
  Molar absoption coefficient ε: 27000 M⁻¹ cm⁻¹
  Stokes shift: 71 nm
  Quantum yield (φ): 0.14

## Nc1nc(-c2cccs2)c2[nH]cnc2n1 [s, 2-amino-6-thienylpurine]
[2]; background art
  Fluorescence wavelength: 435 nm
  Maximum excitation wavelength: 348 nm

## Nc1nc(-c2ccc(-c3ccc(-c4cccs4)s3)s2)c2ncn([C@H]3C[C@H](O)[C@@H](CO)O3)c2n1 [dsss, 2-amino-6-(2,2′,5′,2″-terthien-5-yl)-9-(2-deoxy-β-D-ribofuranosyl)purine]
[1]
  Absorption maximum: 414 nm
  Excitation wavelength: 419 nm
  Fluorescence intensity (ε × φ): 4928
  Fluorescence wavelength: 508 nm
  Molar absoption coefficient ε: 44800 M⁻¹ cm⁻¹
  Stokes shift: 89 nm
  Quantum yield (φ): 0.11

## OC[C@H]1O[C@@H](n2cnc3c(-c4cccs4)ccnc32)C[C@@H]1O [dDs, reference compound]
[1]
  Absorption maximum: 313 nm
  Fluorescence intensity (ε × φ): 4180
  Fluorescence wavelength: 366 nm
  Molar absoption coefficient ε: 22000 M⁻¹ cm⁻¹
  Stokes shift: 54 nm
  Fluorescence emitted by excitation at a wavelength of 350 nm or more: does not emit light
  Quantum yield (φ): 0.19

## c1csc(-c2ccnc3nc[nH]c23)c1 [ds, 7-(2-thienyl)-imidazo[4,5-b]pyridine, reference compound]
[1]
  Absorption maximum: 353 nm
  Excitation wavelength: 350 nm and 351 nm
  Fluorescence intensity (ε × φ): 2576
  Fluorescence wavelength: 429 nm
  Molar absoption coefficient ε: 11200 M⁻¹ cm⁻¹
  Stokes shift: 78 nm
  Quantum yield (φ): 0.23
[2]; background art
  Fluorescence by excitation at a wavelength of 350 nm or more: substantially invisible to the naked eye

## OC[C@H]1O[C@@H](n2cnc3c(-c4ccc(-c5cccs5)s4)ccnc32)C[C@@H]1O [dDss, 7-(2,2′-bithien-5-yl)-3-(2-deoxy-β-D-ribofuranosyl)imidazo[4,5-b]pyridine]
[1]
  Absorption maximum: 370 nm
  Excitation wavelength: 371 nm
  Fluorescence intensity (ε × φ): 10400
  Fluorescence wavelength: 442 nm
  Molar absoption coefficient ε: 32500 M⁻¹ cm⁻¹
  Stokes shift: 71 nm
  Quantum yield (φ): 0.32

## OC[C@H]1O[C@@H](n2ccc3c(-c4ccc(-c5nccs5)s4)ccnc32)C[C@@H]1O [dDsav, 1-[2-deoxy-β-D-ribofuranosyl]-4-[2-(2-thiazolyl)thien-5-yl]pyrrolo[2,3-b]pyridine]
[1]
  Absorption maximum: 365 nm
  Excitation wavelength: 368 nm
  Fluorescence intensity (ε × φ): 2795
  Fluorescence wavelength: 445 nm
  Molar absoption coefficient ε: 21500 M⁻¹ cm⁻¹
  Stokes shift: 77 nm
  Quantum yield (φ): 0.13

## shRNAF1 WT: 52-mer short hairpin RNA (SEQ ID NO: 10) targeting mRNA of firefly luciferase, A36 unsubstituted (GGAGCCUUCAGGAUUACAAGAUUCAAGAGUCUUGUAAUCCUGAAGGCUCCUU; short hairpin RNA, synthesis route not given here, further chemistry not given here)
[3]
  IC50: ~0.02 nM

## Nc1ncc2[nH]cnc2n1 [2-aminopurine]
[1]
  Fluorescence emitted by excitation at a wavelength of 350 nm or more: considerably low
[2]; [4]
  Absorption maximum: 304 nm
  Excitation wavelength: about 300 nm
  Fluorescence intensity (ε × φ): 4828
  Fluorescence wavelength: 370 nm
  Molar absoption coefficient ε: 7100 M⁻¹ cm⁻¹
  Quantum yield (φ): 0.68
  Stokes shift: 67 nm
[2]; from Ward et al., J. Biol. Chem. 1969, listed as 2-aminoprine
  Excitation wavelength: 303 nm
